Data set [1] deals with rabbit aortic rings precontracted with phenylephrine. In words: Vessel-relaxing action in vitro on isolated aortic rings precontracted with phenylephrine. The conditions noted are these: Oryctolagus cuniculus, rabbit aorta rings, phenylephrine contraction. The protocol: Vessel-relaxing Action in vitro
Rings 1.5 mm wide of an aorta isolated from a rabbit are introduced individually, under pretension, in 5 ml organ baths with Krebs-Henseleit solution warmed to 37° C. and gassed with carbogen. The contraction force is amplified and digitalized and recorded in parallel on a line recorder. To generate a contraction, phenylephrine is added cumulatively to the bath in an increasing concentration.
After several control cycles, the substance to be investigated is investigated in each further pass in each case in an increasing dosage, and a comparison is made with the level of the contraction achieved in the last preliminary pass. The concentration necessary to reduce the level of the control value by 50% (IC50) is calculated from this. The standard application volume is 5 μl.
After several control cycles, the substance to be investigated is investigated in each further pass in each case in an increasing dosage, and a comparison is made with the level of the contraction achieved in the last preliminary pass. The concentration necessary to reduce the level of the control value by 50% (IC50) is calculated from this.
The standard application volume is 5 μl.

Data set [2] concerns the target T1, soluble guanylate cyclase (Sus scrofa, UniProt A0A4X1U7N1+A0ACM8Q7I6).
T1 construct: endogenous in cells; host or cells: primary endothelial cells from pig aorta
T1 sequence (A0A4X1U7N1 1-619): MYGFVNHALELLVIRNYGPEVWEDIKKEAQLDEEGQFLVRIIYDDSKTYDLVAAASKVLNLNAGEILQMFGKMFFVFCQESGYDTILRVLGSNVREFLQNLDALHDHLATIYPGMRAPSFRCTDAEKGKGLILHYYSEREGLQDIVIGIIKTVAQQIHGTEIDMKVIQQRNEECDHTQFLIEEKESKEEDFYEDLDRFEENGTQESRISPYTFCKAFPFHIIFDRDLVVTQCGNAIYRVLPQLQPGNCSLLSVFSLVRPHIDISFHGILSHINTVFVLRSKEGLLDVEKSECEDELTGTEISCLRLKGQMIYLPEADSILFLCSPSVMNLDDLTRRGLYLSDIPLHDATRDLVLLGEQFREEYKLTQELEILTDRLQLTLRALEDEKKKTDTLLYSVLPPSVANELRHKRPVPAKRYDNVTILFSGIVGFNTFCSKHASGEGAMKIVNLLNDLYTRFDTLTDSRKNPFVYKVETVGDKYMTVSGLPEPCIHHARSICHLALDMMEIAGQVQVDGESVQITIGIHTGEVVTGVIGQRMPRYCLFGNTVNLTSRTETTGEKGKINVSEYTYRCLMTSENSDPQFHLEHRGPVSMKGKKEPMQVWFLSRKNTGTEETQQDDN
T1 sequence (A0ACM8Q7I6 1-688): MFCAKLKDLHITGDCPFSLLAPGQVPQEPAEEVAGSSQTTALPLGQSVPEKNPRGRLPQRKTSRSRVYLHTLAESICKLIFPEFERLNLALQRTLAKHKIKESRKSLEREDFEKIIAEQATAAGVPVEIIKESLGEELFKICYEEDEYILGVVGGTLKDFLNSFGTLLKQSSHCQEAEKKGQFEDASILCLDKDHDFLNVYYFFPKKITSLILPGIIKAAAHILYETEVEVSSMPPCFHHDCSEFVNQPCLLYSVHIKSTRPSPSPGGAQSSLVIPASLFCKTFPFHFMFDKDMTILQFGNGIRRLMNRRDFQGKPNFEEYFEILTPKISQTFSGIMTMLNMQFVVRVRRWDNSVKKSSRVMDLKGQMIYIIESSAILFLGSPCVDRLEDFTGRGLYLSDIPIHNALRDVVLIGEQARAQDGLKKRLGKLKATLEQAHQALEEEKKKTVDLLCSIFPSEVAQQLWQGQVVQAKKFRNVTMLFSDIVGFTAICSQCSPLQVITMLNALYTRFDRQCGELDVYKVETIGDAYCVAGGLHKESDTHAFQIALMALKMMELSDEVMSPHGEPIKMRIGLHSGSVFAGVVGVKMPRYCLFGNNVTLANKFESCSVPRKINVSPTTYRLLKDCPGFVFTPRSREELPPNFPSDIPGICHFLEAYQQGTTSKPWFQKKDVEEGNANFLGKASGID
Nature of the data set: Stimulation of soluble guanylate cyclase in primary endothelial cells (intracellular cGMP, radioimmunological). Format: cell-based. The conditions noted are these: 10 min, test substance 1 μM, 10-minute incubation, primary pig aortic endothelial cells, with or without SNP 1 μM (not stated which), read-out: % increase in cGMP. The protocol: Stimulation of Soluble Guanylate Cyclase in Primary Endothelial Cells
(§1) Primary endothelial cells were isolated from pig aortas by treatment with collagenase solution. The cells were then cultured in a culture medium until confluence was reached. For the investigations, the cells were subjected to passaging, sown in cell culture plates and subcultured until confluence was reached. To stimulate the endothelial guanylate cyclase, the culture medium was suctioned off and the cells were washed once with Ringer's solution and incubated in stimulation buffer with or without an NO donor (sodium nitroprusside, SNP, 1 μM). Thereafter, the test substances (final concentration 1 μM) were pipetted onto the cells. At the end of the 10-minute incubation period, the buffered solution was suctioned off and the cells were lysed at −20° C. for 16 hours. The intracellular cGMP was then determined radioimmunologically.
as §1, with “sucked” for “suctioned”
as §1, with “without” for “without an”, “buffer” for “buffered”

Data set [3] deals with human platelets stimulated with collagen. Nature of the data set: Inhibition of platelet aggregation in vitro (collagen-induced, platelet-rich plasma). Format: cell-based. The conditions noted are these: human PRP, 37° C. The protocol:
Inhibition of Platelet Aggregation in vitro
To determine the platelet aggregation-inhibiting action, blood from healthy subjects of both sexes was used. One part of 3.8% strength aqueous sodium citrate solution was admixed to 9 parts of blood as an anticoagulant. Platelet-richer citrate plasma (PRP) is obtained from this blood by means of centrifugation.
For the investigations, 445 μl of PRP and 5 μl of the active compound solution were preincubated in a water-bath at 37° C. The platelet aggregation was then determined in an aggregometer at 37° C. using the turbidometric method. For this, 50 μl of collagen, an aggregation-inducing agent, were added to the preincubated sample and the change in optical density was recorded. For the quantitative evaluation, the maximum aggregation response was determined and the percentage inhibition compared with the control was calculated therefrom.
Inhibition of Platelet Pggregation in vitro
For these investigations, 445 μl of PRP and 5 μl of the active compound solution were preincubated in a water-bath at 37° C. The platelet aggregation was then determined in an aggregometer at 37° C. using the turbidometric method. For this, 50 μl of collagen, an aggregation-inducing agent, were added to the preincubated sample and the change in optical density was recorded. For the quantitative evaluation, the maximum aggregation response was determined and the percentage inhibition compared with the control was calculated therefrom.

≈ marks a conversion by molar mass, not a printed value. Like-named read-outs stand apart in the source and are kept apart here.

`OCc1cccc(-c2nn(Cc3ccccc3F)c3ccccc23)n1` [II-62] came in with a melting point of 99 °C. In data set [1] (embodiment II), this compound returned a half-inhibitory concentration (IC50) of 13 µM.
For the compound `OCc1cnc(-c2nn(Cc3ccccc3)c3ccccc23)o1` [III-71, 1-Benzyl-3-(5-hydroxymethyl-oxazol-2-yl)-indazole], the figures for the IC50 in data set [1] (embodiment III) and in data set [3] (embodiment III) were 5 µM and 50 µg/mL (≈ 164 µM), respectively. Moreover, the activation at 1 µM in data set [2] (embodiment III) stood at 315%.
`CCOC(=O)c1csc(-c2nn(Cc3ccccc3)c3ccccc23)n1` [III-72, Ethyl 2-(1-benzyl-indazol-3-yl)-thiazole-4-carboxylate] returned an IC50 in data set [3] (embodiment III) of 1 µg/mL (≈ 2.75 µM).
As to `OCc1csc(-c2nn(Cc3ccccc3)c3ccccc23)n1` [III-82], the IC50 in data set [1] (embodiment III) was found to be 15 µM. For the same compound, the activation at 1 µM in data set [2] (embodiment III) was 455%.
As for `c1ccc(Cn2nc(-c3ncco3)c3ccccc32)cc1` [III-87], the IC50 in data set [1] (embodiment III) was 19 µM. Moreover, the activation at 1 µM in data set [2] (embodiment III) is 268%.
On to `N#Cc1ccccc1Cn1nc(-c2ccc(CO)o2)c2ccccc21` [IV-136, 1-(^2-Cyanobenzyl)-3-(5-hydroxymethylfuran-2-yl)-indazole], for which the IC50 was 7.2 µM in data set [1] (iv, embodiment IV) and 30 µg/mL (≈ 91.1 µM) in data set [3] (embodiment IV). In data set [2] (embodiment IV), the activation at 1 µM is more than 1000%.
Consider `CC(O)c1ccc(-c2nn(Cc3ccccc3)c3ccccc23)o1` (stereo not shown) [IV-139, 1-[5-(1-Benzylindazol-3-yl)-furan-2-yl]-ethanol], for which the midpoint of inhibition in data set [1] (iv, embodiment IV), the IC50, lay at 12 µM. Also, the activation at 1 µM in data set [2] (embodiment IV) stood at 723%.
Compound `CC(=O)c1ccc(-c2nn(Cc3ccccc3)c3ccccc23)o1` [IV-140, 3-(5-Acetylfuran-2-yl)-1-benzyl-indazole] gave a 50% inhibitory concentration (IC50) in data set [1] (iv, embodiment IV) of 12 to 17 µM. Also, the activation at 1 µM in data set [2] (embodiment IV) is 619%.
In the case of `O=Cc1ccc(-c2nn(Cc3ccc(F)cc3)c3ccccc23)o1` [IV-148], half-maximal inhibition in data set [1] (iv, embodiment IV) (IC50) was put at 6.7 µM. Besides, the activation at 1 µM in data set [2] (embodiment IV) amounted to 978%.
The corresponding values for `O/N=C/c1ccc(-c2nn(Cc3ccccc3)c3ccccc23)o1` [IV-153] are 9.1 µM and 341%.
On the same counts, the results for `OCc1coc(-c2nn(Cc3ccccc3)c3ccccc23)c1` [IV-164] are 12 µM and 289%.
`OCc1ccc(-c2nn(Cc3c(F)cccc3F)c3ccccc23)o1` [IV-165] displayed an IC50 in data set [1] (iv, embodiment IV) of 29 µM. In addition, in data set [2] (embodiment IV), the activation at 1 µM was 256%.
For `Cc1cc(-c2nn(Cc3ccccc3)c3ccccc23)oc1CO` [IV-179], the IC50 in data set [1] (iv, embodiment IV) came to 11 µM. Moreover, in data set [2] (embodiment IV), the activation at 1 µM was found to be 921%.
For the compound `Cc1nc(-c2nn(Cc3ccccc3F)c3ccccc23)oc1CN1C(=O)c2ccccc2C1=O` [Process Example 11, 2-[1-(2-fluorobenzyl)-indazole-3-yl]-4-methyl-5-(N-phthalimidomethyl)-oxazole], the melting point lay within 175 to 177 °C.

Usually IC50 stands for the concentration at which inhibition is half-maximal. As usually defined, the melting point is the temperature, or range, at which the solid turns liquid.

For the origin of these results see patent US6410740B1, “Heterocyclylmethyl-substituted pyrazol derivatives” (Bayer Aktiengesellschaft, priority 1996, dated 2002).
